Test results: PMC5458078, “Global mapping of CARM1 substrates defines enzyme specificity and substrate recognition” (Nature Communications, 2017)

Assays:
MCF7 cells = test: Quantitative nanoLC-MS/MS (TMT) of ADMA-containing peptides, CARM1 KO vs parental; assay type: cell-based, human; design: Fold change KO/WT: scale not given here
MCF7 CARM1 KO cells = test: Quantitative MS of ADMA-containing peptides in MCF7 CARM1 KO cells expressing CARM1 28-608 or CARM1 140-608, and in CARM1 KO; assay type: cell-based, human
[1] = ADMA-containing peptide, CARM1 knockout (KO) vs wild type (WT) MCF7 cells, 6-plex TMT experiment #1, three biological replicates each, sheet "MCF7"
[2] = CARM1 140-608 versus WT, mean of three replicates (log2)
[3] = KO versus WT, mean of three replicates (log2)
[4] = MCF7, CARM1 KO (KO1-KO3) vs wild type (WT1-WT3)
[5] = CARM1 140-608 vs WT, mean of 3 replicates (log2 scale)
[6] = KO vs WT, mean of 3 replicates (log2 scale)
[7] = MCF7, CARM1 knockout vs wild type, n = 3 each
[8] = ratio on log2 scale, mean of 3 replicates
[9] = difference of log2 means, CARM1 140-608 vs WT
[10] = difference of log2 means, KO vs WT
[11] = ADMA-containing peptide, MCF7, CARM1 knockout (KO1-3) vs wild type (WT1-3), TMT 6-plex experiment #1
[12] = CARM1 140-608 versus WT, difference of mean log2 values
[13] = CARM1 KO versus WT, difference of mean log2 values
[14] = mean, CARM1 140-608 versus WT (log2 scale)
[15] = mean, CARM1 KO versus WT (log2 scale)
[16] = MCF7, CARM1 KO vs WT, three biological replicates each
[17] = CARM1 140-608 vs WT, mean of 3 replicates, log2
[18] = KO vs WT, mean of 3 replicates, log2
[19] = log2 scale ratio, mean of n = 3
[20] = CARM1 KO vs wild type MCF7 cells, 3 biological replicates each

LAMDFGGAGAAQQGLTDSCQSGGVPTAVQNLAPrAAVAAAAPrAVAPYK
Fold change KO/WT (MCF7 cells; [1]): -4.352 | CARM1 140-608/WT (MCF7 CARM1 KO cells; [2]): -1.57 | KO/WT (MCF7 CARM1 KO cells; [3]): -4.352

FrLSLFSDLPEDTELQR
Fold change KO/WT (MCF7 cells; [4]): -2.692 | CARM1 140-608/WT (MCF7 CARM1 KO cells; [5]): -2.025 | KO/WT (MCF7 CARM1 KO cells; [6]): -2.692

GILPMNPrNMMNHSQVGQGIGIPSR
Fold change KO/WT (MCF7 cells; [7]): -1.864 | CARM1 140-608/WT (MCF7 CARM1 KO cells; [8]): -1.1659 | KO/WT (MCF7 CARM1 KO cells; [8]): -1.864

DLPLHPrGFLPGHAPFrPLGSLGPrEYFIPGTrLPPPTHGPQEYPPPPAVR
Fold change KO/WT (MCF7 cells; [1]): -1.638 | CARM1 140-608/WT (MCF7 CARM1 KO cells; [9]): -0.2675 | KO/WT (MCF7 CARM1 KO cells; [10]): -2.443

GLPTTTQrVGVPTAVQNLAPrAAVAAAAPrAVAPYK
Fold change KO/WT (MCF7 cells; [1]): -2.96 | CARM1 140-608/WT (MCF7 CARM1 KO cells; [2]): -1.934 | KO/WT (MCF7 CARM1 KO cells; [3]): -2.638

QPPPLQQQArFIQPrPTLNQPPPPLIrPANSMPPR
Fold change KO/WT (MCF7 cells; [4]): -1.373 | CARM1 140-608/WT (MCF7 CARM1 KO cells; [5]): 1.096 | KO/WT (MCF7 CARM1 KO cells; [6]): -1.373

TDGFAEAIHSPQVAGVPrFR
Fold change KO/WT (MCF7 cells; [11]): -1.53 | CARM1 140-608/WT (MCF7 CARM1 KO cells; [12]): -1.17 | KO/WT (MCF7 CARM1 KO cells; [13]): -1.53

GPGGPrGGLGGGMR
Fold change KO/WT (MCF7 cells; [7]): 0.08213 | CARM1 140-608/WT (MCF7 CARM1 KO cells; [14]): 0.09567 | KO/WT (MCF7 CARM1 KO cells; [15]): -0.1983

LSAETWDLLrLPLER
Fold change KO/WT (MCF7 cells; [7]): -3.314 | CARM1 140-608/WT (MCF7 CARM1 KO cells; [14]): -2.21 | KO/WT (MCF7 CARM1 KO cells; [15]): -3.314

SPYTTTrYGSPINTFTVrPGTR
Fold change KO/WT (MCF7 cells; [16]): -3.428 | CARM1 140-608/WT (MCF7 CARM1 KO cells; [17]): -2.642 | KO/WT (MCF7 CARM1 KO cells; [18]): -5.424

INPLPGGrNFSGTASTSLLGPPPGLLTPPVATELSQNAR
Fold change KO/WT (MCF7 cells; [16]): -2.627 | CARM1 140-608/WT (MCF7 CARM1 KO cells; [17]): -1.005 | KO/WT (MCF7 CARM1 KO cells; [18]): -2.627

MRPQPYGGTNPYSQQQGPPSGPQQGHGYPGQPYGSQTPQrYPMTMQGR
Fold change KO/WT (MCF7 cells; [16]): -2.959 | CARM1 140-608/WT (MCF7 CARM1 KO cells; [17]): -0.1711 | KO/WT (MCF7 CARM1 KO cells; [18]): -1.781

ErLALAAGPALrPDMSYAER
Fold change KO/WT (MCF7 cells; [16]): -2.368 | CARM1 140-608/WT (MCF7 CARM1 KO cells; [17]): -1.6609 | KO/WT (MCF7 CARM1 KO cells; [18]): -2.368

RPEFMrGGGSGGGR
Fold change KO/WT (MCF7 cells; [11]): 0.64 | CARM1 140-608/WT (MCF7 CARM1 KO cells; [19]): 0.07419 | KO/WT (MCF7 CARM1 KO cells; [19]): 0.64

GIPLDAAAAYYLPrHLAPNPTYPHLYPPYLIrGYPDTAALENR
Fold change KO/WT (MCF7 cells; [1]): -1.386 | CARM1 140-608/WT (MCF7 CARM1 KO cells; [2]): -0.9413 | KO/WT (MCF7 CARM1 KO cells; [3]): -1.386

LQLGTPPPLLAArLVPPR
Fold change KO/WT (MCF7 cells; [4]): -2.7388 | CARM1 140-608/WT (MCF7 CARM1 KO cells; [2]): -3.287 | KO/WT (MCF7 CARM1 KO cells; [3]): -5.072

DCGTLPNrFVITPR
Fold change KO/WT (MCF7 cells; [1]): -0.2619 | CARM1 140-608/WT (MCF7 CARM1 KO cells; [2]): -0.5335 | KO/WT (MCF7 CARM1 KO cells; [3]): -0.73

KSTLKPQPAPQAGPIPVAPIGTLKPQPQPVPASYTTASTSSrPTFNVQVK
Fold change KO/WT (MCF7 cells; MCF7 CARM1 knockout vs wild type, 3 biological replicates each, values are on log2 scale): -3.309 | CARM1 140-608/WT (MCF7 CARM1 KO cells; [9]): -2.692 | KO/WT (MCF7 CARM1 KO cells; [10]): -3.309

LQEVSLrQGMr
Fold change KO/WT (MCF7 cells; [16]): -0.8557 | CARM1 140-608/WT (MCF7 CARM1 KO cells; [8]): 0.07113 | KO/WT (MCF7 CARM1 KO cells; [8]): -0.8557

LQGQQFLNQSrQALELK
Fold change KO/WT (MCF7 cells; [1]): -1.9617 | CARM1 140-608/WT (MCF7 CARM1 KO cells; [2]): 0.6173 | KO/WT (MCF7 CARM1 KO cells; [3]): -0.8589

NRPAIArGAAGGGGR
Fold change KO/WT (MCF7 cells; [16]): 0.06918 | CARM1 140-608/WT (MCF7 CARM1 KO cells; [17]): -0.06003 | KO/WT (MCF7 CARM1 KO cells; [18]): 0.534

SHLSTAGGLAVPSLPTAGPYYSPYALYGQrLASASALGYQ
Fold change KO/WT (MCF7 cells; [20]): -2.553 | CARM1 140-608/WT (MCF7 CARM1 KO cells; [12]): -2.31 | KO/WT (MCF7 CARM1 KO cells; [13]): -2.998

SVVESSAPGANNLQVNALVArLPLLLPrAPR
Fold change KO/WT (MCF7 cells; [4]): -2.886 | CARM1 140-608/WT (MCF7 CARM1 KO cells; [5]): -1.353 | KO/WT (MCF7 CARM1 KO cells; [6]): -2.886

LEPPLTPrCPLDFAPQTLSFPYAR
Fold change KO/WT (MCF7 cells; [16]): -5.801 | CARM1 140-608/WT (MCF7 CARM1 KO cells; [17]): -2.973 | KO/WT (MCF7 CARM1 KO cells; [18]): -5.801

QVHPFHVYPQPGMQrFR
Fold change KO/WT (MCF7 cells; [16]): -0.1867 | CARM1 140-608/WT (MCF7 CARM1 KO cells; [17]): -0.2745 | KO/WT (MCF7 CARM1 KO cells; [18]): -0.1867

MGTPVPrPPQDMGQIGVRTPLGPrVAAPVGPVGPTPTVLPMGAPVPrPR
Fold change KO/WT (MCF7 cells; [4]): -2.512 | CARM1 140-608/WT (MCF7 CARM1 KO cells; [5]): -3.81 | KO/WT (MCF7 CARM1 KO cells; [6]): -4.903

VrATSVLPrYGPPCLFK
Fold change KO/WT (MCF7 cells; [11]): -2.652 | CARM1 140-608/WT (MCF7 CARM1 KO cells; [19]): -1.769 | KO/WT (MCF7 CARM1 KO cells; [19]): -2.652

AVCSTPLSSSLLGPPGTSALPrLSR
Fold change KO/WT (MCF7 cells; [1]): -3.255 | CARM1 140-608/WT (MCF7 CARM1 KO cells; [9]): -2.222 | KO/WT (MCF7 CARM1 KO cells; [10]): -3.255

STArFTLNPNPTGVQNPHIER
Fold change KO/WT (MCF7 cells; [1]): -1.9764 | CARM1 140-608/WT (MCF7 CARM1 KO cells; [9]): -1.926 | KO/WT (MCF7 CARM1 KO cells; [10]): -2.347

HASErGHLR
Fold change KO/WT (MCF7 cells; [20]): 1.422 | CARM1 140-608/WT (MCF7 CARM1 KO cells; [12]): 0.2697 | KO/WT (MCF7 CARM1 KO cells; [13]): 1.422

VGVPTAVQNLAPrAAVAAAAPrAVAPYK
Fold change KO/WT (MCF7 cells; [1]): -3.907 | CARM1 140-608/WT (MCF7 CARM1 KO cells; [2]): 0.2214 | KO/WT (MCF7 CARM1 KO cells; [3]): -3.003

GMQHFPPGPGGPMPGPHGGPGGPVGPrLLGPPPPPR
Fold change KO/WT (MCF7 cells; [1]): -1.283 | CARM1 140-608/WT (MCF7 CARM1 KO cells; [2]): -0.7184 | KO/WT (MCF7 CARM1 KO cells; [3]): -1.425
